Data on 1 compound can be found in patent US20210403485A1, “PYRAZOLOPYRIMIDINE DERIVATIVE AS SELECTIVE TRK INHIBITOR” (SHANDONG LUYE PHARMACEUTICAL CO., LTD., priority 2018, published 2021).

The target in the experiment is T1, TrkA (Homo sapiens, UniProt P04629).
T1 construct: purchased Reaction Biology Corp
Briefly: Kinase inhibitory activity (33P-ATP, filtration-binding method, Reaction Biology Corp.). It is filed as biochemical. As to conditions: read-out: Half maximal inhibitory concentration IC50 for kinases, TrkA. The procedure:
The mixture was incubated at room temperature for 20 minutes, added with ^33P-ATP at a certain concentration to start the reaction, and then incubated at room temperature for 120 minutes. Finally, the radioactivity of the reactant was detected by the filtration-binding method. The final kinase activity was expressed as the ratio of the remaining kinase activity in the test sample to the kinase activity of the DMSO control. The dose-response curves were fitted and IC50 values were calculated by GraphPad software.

T1 sequence (P04629 33-796): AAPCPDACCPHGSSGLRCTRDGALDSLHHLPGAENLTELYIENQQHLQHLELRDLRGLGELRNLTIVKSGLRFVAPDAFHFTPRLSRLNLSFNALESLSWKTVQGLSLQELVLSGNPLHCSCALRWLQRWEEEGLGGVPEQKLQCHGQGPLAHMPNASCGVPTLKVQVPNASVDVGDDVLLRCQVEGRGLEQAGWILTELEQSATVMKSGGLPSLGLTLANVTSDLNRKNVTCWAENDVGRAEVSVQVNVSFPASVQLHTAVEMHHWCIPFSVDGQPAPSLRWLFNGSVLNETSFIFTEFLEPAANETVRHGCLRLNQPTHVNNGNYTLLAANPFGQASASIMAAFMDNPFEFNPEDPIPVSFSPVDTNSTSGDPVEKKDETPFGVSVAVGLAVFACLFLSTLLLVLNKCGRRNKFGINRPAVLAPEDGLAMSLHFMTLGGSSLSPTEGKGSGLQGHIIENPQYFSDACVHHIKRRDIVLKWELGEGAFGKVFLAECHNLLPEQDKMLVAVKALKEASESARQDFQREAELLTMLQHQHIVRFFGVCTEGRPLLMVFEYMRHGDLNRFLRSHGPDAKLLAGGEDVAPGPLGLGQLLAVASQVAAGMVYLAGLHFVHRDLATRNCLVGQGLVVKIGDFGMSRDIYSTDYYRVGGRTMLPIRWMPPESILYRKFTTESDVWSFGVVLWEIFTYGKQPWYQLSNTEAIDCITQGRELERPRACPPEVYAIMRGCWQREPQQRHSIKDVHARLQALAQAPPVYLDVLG

For `C[C@H]1CNC(=O)c2cnn3ccc(nc23)N2CCOC[C@H]2c2cc(F)cnc2O1` [WX004A], the IC50 came out at 441 nM.
